This passage reports IC50 and melting point results from patent publication US8685992B2, “Histone deacetylase inhibitors based simultaneously on trisubstituted 1H-pyrroles and aromatic and heteroaromatic spacers” (Universidad del País Vasco, priority 2009, dated 2014).

In one data set the test system is 143b. The data set is described as follows: Cancer cell growth inhibition, 143b. It counts as cell-based. The following applies: Homo sapiens, Osteosarcoma, 72 h treatment. The protocol:
(§1) Cell culture-based assays were used to evaluate the ability of compounds of the invention to inhibit cancer cell growth inhibition.
(§2) Cells were obtained from the American Type Culture Collection (ATCC). Cells were cultured at 37° C. with 5% CO2 in the appropriate growth medium (see table below), and harvested respectively during the logarithmic growth period and counted with hemocytometer. The cell viability was over 98% by trypan blue exclusion. Cell concentrations were adjusted between 5×10^4 and 2×10^5 cells/ml with respective medium.
(§3) Stock solutions of test compounds and positive drugs Doxorubicin (Zhejiang, Haizheng, China), Paclitaxel (Beijing, Xiehe, China), Vincristin (Shenzhen Wanle, China), 5-FU (Tianjin jinyaoanjisuan, China), Irinotecan (Jiangsu Hengrui, China) and Cisplatin Nanjing zhiyao, China) were prepared in dimethyl sulphoxide (DMSO) or PBS at 20 mM.
(§4) All treatments were performed in triplicate. 10 μl drug solution was added to each well and incubated for 72 hours. At the end of the incubation, 20 μl of the freshly prepared MTS/PMS mixture solution was added to each well and incubated for 4 hours at 37° C. in a humidified, 5% CO2 atmosphere. Absorbance was read at 490 nm using SpectraMAX Plus microplate spectrophotometer. […] In order to calculate IC50, a dose-responsive curve was fitted using nonlinear regression model with a sigmoidal dose response.

Another data set relates to SK-HEP-1. The data set is described as follows: Cancer cell growth inhibition, SK-HEP-1. The following applies: Homo sapiens, SK-HEP1; SK-HEP-1, Liver Cancer, 72 h treatment. Format: cell-based. The protocol:
as §1, §2, §3, §4

The next data set has as its system MCF-7-FL. The experiment in a line: Cancer cell growth inhibition, MCF-7-FL. It counts as cell-based. The following applies: Homo sapiens, Breast Cancer, 72 h treatment. The protocol: as §1, §2, §3, §4
A further data set has as its system BT474. The data set is described as follows: Cancer cell growth inhibition, BT474. Format: cell-based. To be noted: Homo sapiens, BT-474; BT474, Breast Cancer, 72 h treatment. The procedure:
as §1, §2, §3, §4

For another data set, the system named is HT-1080. The data set is described as follows: Cancer cell growth inhibition, HT-1080. It counts as cell-based. The following applies: Homo sapiens; HT-1080, Fibrosarcoma, 72 h treatment. The procedure: as §1, §2, §3, §4
The next data set has as its system HCT-116. The data set is described as follows: Cancer cell growth inhibition, HCT-116. The following applies: HCT-116, Colorectal Cancer, 72 h treatment. Format: cell-based, human. The procedure: as §1, §2, §3, §4
Another data set deals with MIAPACA-2. The data set is described as follows: Cancer cell growth inhibition, MIAPACA-2. It counts as cell-based, human. The following applies: MIAPACA-2, Pancreatic Cancer, 72 h treatment. The protocol: as §1, §2, §3, §4
The test system of a further data set is HepG2. The experiment in a line: Cancer cell growth inhibition, HepG2. It counts as cell-based, human. The following applies: HepG2, Liver Cancer, 72 h treatment. The protocol: as §1, §2, §3, §4
Data set [1] deals with Nuclear Extract from HeLa Cells. The experiment in a line: HeLa Nuclear Extract HDAC assay. It counts as biochemical, human. To be noted: 50 μM substrate, 30° C., 2 h, read-out: IC50 (nM) of enzyme activity HeLa.
For data set [2], the target named is histone deacetylase from rat liver. The data set is described as follows: Rat liver HDAC assay. It counts as biochemical. The following applies: Boc-Lys(Ac)-AMC substrate, 30° C., 2 h, read-out: IC50 (nM) of enzyme activity Rat liver.
The target of a further data set is Human HDAC8 (Homo sapiens (Human), UniProt Q9BY41). The experiment in a line: HDAC8 fluorogenic peptide deacetylation assay. It counts as biochemical. To be noted: human HDAC8, 50 μM substrate, 30° C., 2 h; read-out: IC50 (nM) of enzyme activity HDAC8.
For another data set, the target named is Human HDAC3/NcoR2 (Homo sapiens (Human), UniProt O15379). The experiment in a line: HDAC3 fluorogenic peptide deacetylation assay. Format: biochemical. The following applies: human HDAC3/NcoR2, 50 μM substrate, 30° C., 2 h; read-out: IC50 (nM) of enzyme activity HDAC3.
The target of the next data set is Human HDAC1 (Homo sapiens (Human), UniProt Q13547). The experiment in a line: HDAC1 fluorogenic peptide deacetylation assay. The following applies: human HDAC1, 50 μM substrate, 30° C., 2 h; read-out: IC50 (nM) of enzyme activity HDAC1. Format: biochemical.
For another data set, the target named is Human HDAC2 (Homo sapiens (Human), UniProt Q92769). The experiment in a line: HDAC2 fluorogenic peptide deacetylation assay. Format: biochemical. The following applies: human HDAC2, 50 μM substrate, 30° C., 2 h; read-out: IC50 (nM) of enzyme activity HDAC2.
The next data set addresses Human HDAC6 (Homo sapiens (Human), UniProt Q9UBN7). The data set is described as follows: HDAC6 fluorogenic peptide deacetylation assay. It counts as biochemical. To be noted: human HDAC6, 50 μM substrate, 30° C., 2 h; read-out: IC50 (nM) of enzyme activity HDAC6.
For another data set, the system named is Colo205. The data set is described as follows: Cancer cell growth inhibition, Colo205. Format: cell-based. To be noted: Homo sapiens, COLO 205; Colo205, Colorectal Cancer, 72 h treatment. The procedure:
as §1, §2, §3, §4

The test system of a further data set is MCF-7-218. The data set is described as follows: Cancer cell growth inhibition, MCF-7-218. It counts as cell-based. To be noted: Homo sapiens; MCF-7-218, Breast Cancer, 72 h treatment. The procedure:
as §1, §2, §3, §4

The IC50 is the midpoint of a concentration-inhibition curve. By melting point is commonly meant the temperature, or range, at which the solid turns liquid.

Sequence of Human HDAC8 (Q9BY41 whole entry): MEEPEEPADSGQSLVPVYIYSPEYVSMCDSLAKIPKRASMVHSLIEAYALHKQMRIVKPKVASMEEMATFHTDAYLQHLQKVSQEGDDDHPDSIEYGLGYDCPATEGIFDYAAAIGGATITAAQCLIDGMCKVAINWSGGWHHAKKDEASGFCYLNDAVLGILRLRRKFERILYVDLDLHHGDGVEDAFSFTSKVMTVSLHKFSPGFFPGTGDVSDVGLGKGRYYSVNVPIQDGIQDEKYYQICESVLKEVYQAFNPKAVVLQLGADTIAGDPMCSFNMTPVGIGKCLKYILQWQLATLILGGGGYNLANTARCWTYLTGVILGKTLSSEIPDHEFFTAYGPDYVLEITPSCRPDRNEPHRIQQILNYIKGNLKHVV
Sequence of Human HDAC6 (Q9UBN7 whole entry): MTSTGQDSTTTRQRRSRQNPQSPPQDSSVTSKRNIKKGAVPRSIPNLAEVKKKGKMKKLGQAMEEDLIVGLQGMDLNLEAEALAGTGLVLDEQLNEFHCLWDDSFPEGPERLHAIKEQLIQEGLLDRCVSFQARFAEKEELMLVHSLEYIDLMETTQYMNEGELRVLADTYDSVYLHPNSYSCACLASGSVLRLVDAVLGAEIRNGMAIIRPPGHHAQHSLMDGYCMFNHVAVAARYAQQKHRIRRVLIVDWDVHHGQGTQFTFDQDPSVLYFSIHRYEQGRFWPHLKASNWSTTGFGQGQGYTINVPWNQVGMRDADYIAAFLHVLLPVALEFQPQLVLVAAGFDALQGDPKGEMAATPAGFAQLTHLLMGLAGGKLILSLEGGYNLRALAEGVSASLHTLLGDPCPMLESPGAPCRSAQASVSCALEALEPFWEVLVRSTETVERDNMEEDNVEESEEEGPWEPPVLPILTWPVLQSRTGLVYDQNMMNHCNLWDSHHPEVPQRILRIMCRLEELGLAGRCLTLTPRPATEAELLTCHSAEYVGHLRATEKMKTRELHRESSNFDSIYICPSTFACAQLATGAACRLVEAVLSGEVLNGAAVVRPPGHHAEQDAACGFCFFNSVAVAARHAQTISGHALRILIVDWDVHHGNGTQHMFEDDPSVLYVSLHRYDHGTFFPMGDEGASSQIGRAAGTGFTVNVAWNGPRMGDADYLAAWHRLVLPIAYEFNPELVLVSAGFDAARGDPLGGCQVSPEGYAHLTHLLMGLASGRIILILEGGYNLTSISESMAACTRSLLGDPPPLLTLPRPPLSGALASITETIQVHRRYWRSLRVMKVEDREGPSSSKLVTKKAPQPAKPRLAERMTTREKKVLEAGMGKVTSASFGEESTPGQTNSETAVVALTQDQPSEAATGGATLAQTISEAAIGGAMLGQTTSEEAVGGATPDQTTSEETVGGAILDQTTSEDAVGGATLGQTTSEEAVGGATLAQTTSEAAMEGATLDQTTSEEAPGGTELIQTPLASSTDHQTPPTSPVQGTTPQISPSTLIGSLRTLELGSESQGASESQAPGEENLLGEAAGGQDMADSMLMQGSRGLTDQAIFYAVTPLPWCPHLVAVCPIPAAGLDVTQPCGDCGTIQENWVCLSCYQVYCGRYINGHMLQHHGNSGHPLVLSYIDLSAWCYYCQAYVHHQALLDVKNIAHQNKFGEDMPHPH
Sequence of Human HDAC3/NcoR2 (O15379 whole entry): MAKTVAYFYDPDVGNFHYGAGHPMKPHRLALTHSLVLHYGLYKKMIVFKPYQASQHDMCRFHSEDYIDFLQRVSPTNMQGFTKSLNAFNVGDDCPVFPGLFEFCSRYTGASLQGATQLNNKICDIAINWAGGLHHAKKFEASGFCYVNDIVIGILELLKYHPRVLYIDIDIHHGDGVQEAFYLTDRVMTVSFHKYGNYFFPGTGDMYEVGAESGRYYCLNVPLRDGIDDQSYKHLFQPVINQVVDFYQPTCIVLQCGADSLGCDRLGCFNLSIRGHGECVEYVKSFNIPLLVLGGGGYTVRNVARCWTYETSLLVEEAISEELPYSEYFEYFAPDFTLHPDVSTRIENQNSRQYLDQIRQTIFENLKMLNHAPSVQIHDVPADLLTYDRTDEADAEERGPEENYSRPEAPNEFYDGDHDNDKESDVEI
Sequence of Human HDAC3/NcoR2 (Q9Y618 395-489 partner): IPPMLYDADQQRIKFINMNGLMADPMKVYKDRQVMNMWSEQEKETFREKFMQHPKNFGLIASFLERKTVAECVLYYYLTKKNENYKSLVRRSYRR
Sequence of Human HDAC2 (Q92769 whole entry): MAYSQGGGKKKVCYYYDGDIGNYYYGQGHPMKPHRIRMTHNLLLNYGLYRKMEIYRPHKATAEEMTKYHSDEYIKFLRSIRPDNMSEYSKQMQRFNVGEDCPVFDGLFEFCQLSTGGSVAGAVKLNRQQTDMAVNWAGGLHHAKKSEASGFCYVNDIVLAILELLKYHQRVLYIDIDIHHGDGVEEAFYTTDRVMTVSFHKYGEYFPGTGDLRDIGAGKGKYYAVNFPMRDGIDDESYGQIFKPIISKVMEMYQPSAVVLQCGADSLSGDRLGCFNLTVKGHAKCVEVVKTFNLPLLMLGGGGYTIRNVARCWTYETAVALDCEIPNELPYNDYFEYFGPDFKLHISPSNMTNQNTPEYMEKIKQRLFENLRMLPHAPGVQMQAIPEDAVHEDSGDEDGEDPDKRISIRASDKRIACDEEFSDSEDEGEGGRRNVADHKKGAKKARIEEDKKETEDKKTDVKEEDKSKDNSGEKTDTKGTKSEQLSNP
Sequence of Human HDAC1 (Q13547 whole entry): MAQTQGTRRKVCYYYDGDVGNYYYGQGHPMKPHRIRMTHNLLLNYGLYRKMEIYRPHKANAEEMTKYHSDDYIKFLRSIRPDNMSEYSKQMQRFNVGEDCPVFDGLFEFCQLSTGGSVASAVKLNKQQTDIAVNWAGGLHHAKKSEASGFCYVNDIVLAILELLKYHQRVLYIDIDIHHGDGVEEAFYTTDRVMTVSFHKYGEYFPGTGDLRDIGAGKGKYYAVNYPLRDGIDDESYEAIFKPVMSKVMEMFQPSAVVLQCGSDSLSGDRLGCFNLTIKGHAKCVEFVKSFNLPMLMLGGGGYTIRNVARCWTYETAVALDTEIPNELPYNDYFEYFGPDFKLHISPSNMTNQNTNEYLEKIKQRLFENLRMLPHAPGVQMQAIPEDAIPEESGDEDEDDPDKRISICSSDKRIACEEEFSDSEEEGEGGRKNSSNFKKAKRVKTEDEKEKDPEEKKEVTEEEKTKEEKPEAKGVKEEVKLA

Regarding `COc1cccc2c1C(=O)c1c(O)c3c(c(O)c1C2=O)C[C@@](O)(C(=O)CO)C[C@@H]3O[C@H]1C[C@H](N)[C@H](O)[C@H](C)O1` [Doxorubicin, reference compound], the IC50 with 143b came to 86.1 nM; with SK-HEP-1, 164 nM; in the data set on MCF-7-FL, 2370 nM; with BT474 it was 4500 nM; with HT-1080 it was 25.6 nM.
As to `O=c1[nH]cc(F)c(=O)[nH]1` [Example 5-FU, 5-FU, reference compound], the IC50 is 1710 nM in the data set on HCT-116, 7610 nM in the data set on MIAPACA-2 and 3280 nM in the data set on HepG2.
As for `O=C(NO)c1ccc(CNC(=O)c2[nH]c(-c3ccccc3)cc2-c2ccc(O)cc2)cc1` [Example 10, N-{4-[(hydroxyamino)carbonyl]benzyl}-3-(4-hydroxyphenyl)-5-phenyl-1H-pyrrole-2-carboxamide], the melting point lay within 139 to 141 °C. The half-maximal inhibitory concentration (IC50) in [1] was 34 nM. Also, in data set [2], the IC50 was 66 nM. In addition, the IC50 at Human HDAC8 worked out at 340 nM. Moreover, at Human HDAC3/NcoR2, the IC50 was 512 nM. Further, the IC50 on Human HDAC1 is 473 nM. Besides, the IC50 on Human HDAC2 was 1390 nM. At Human HDAC6, the IC50 came to 10.8 nM.
With `O=C(NO)c1ccc(CNC(=O)c2[nH]c(-c3ccoc3)cc2-c2ccc(F)cc2)cc1` [Example 12, 3-(4-fluorophenyl)-5-(3-furyl)-N-{4-[(hydroxyamino)carbonyl]benzyl}-1H-pyrrole-2-carboxamide], the melting point was 162 to 164 °C. In addition, the half-inhibitory concentration (IC50) in data set [1] stood at 46.4 nM. Moreover, the IC50 in data set [2] is 56 nM. Besides, the IC50 on Human HDAC8 came out at 124 nM. The IC50 at Human HDAC3/NcoR2 came to 451 nM. For the same compound, on Human HDAC1, the IC50 amounted to 384 nM. Further, the IC50 at Human HDAC2 is 1150 nM. At Human HDAC6, the IC50 came out at 42.8 nM.
In the case of `O=C(NO)c1ccc(CNC(=O)c2[nH]c(-c3cccs3)cc2-c2ccc(O)cc2)cc1` [Example 13, N-{4-[(hydroxyamino)carbonyl]benzyl}-3-(4-hydroxyphenyl)-5-(2-thienyl)-1H-pyrrole-2-carboxamide], the melting point was 171 to 172 °C. The IC50 in data set [1] stood at 42 nM. In addition, on Human HDAC8, the IC50 was found to be 559 nM. Besides, the IC50 at Human HDAC3/NcoR2 amounted to 614 nM. The IC50 at Human HDAC1 is 865 nM. Moreover, the IC50 on Human HDAC2 worked out at 1910 nM. In addition, the concentration for half-maximal inhibition (IC50) at Human HDAC6 amounted to 6.6 nM.
Turning to `COc1ccc(-c2cc(-c3ccccc3)[nH]c2C(=O)NCc2ccc(C(=O)Nc3ccccc3N)cc2)cc1` [Example 21, N-(4-{[(2-aminophenyl)amino]carbonyl}benzyl)-3-(4-methoxyphenyl)-5-phenyl-1H-pyrrole-2-carboxamide], the melting point is 142 to 143 °C (dec.). The IC50 in [1] is 7010 nM. For the same compound, the IC50 in [2] is over 10000 nM. The IC50 on Human HDAC8 was over 5000 nM. In addition, the IC50 at Human HDAC3/NcoR2 was determined as 3900 nM. Also, the IC50 on Human HDAC1 was found to be 390 nM. For the same compound, the IC50 on Human HDAC2 stood at 1260 nM. Further, the IC50 on Human HDAC6 was over 5000 nM.
In turn, `COc1ccc(-c2cc(-c3ccccc3)[nH]c2C(=O)NCc2ccc(C(=O)Nc3ccccc3S)cc2)cc1` [Example 22, 3-(4-methoxyphenyl)-5-phenyl-N-(4-{[(2-sulfanylphenyl)amino]carbonyl}benzyl)-1H-pyrrole-2-carboxamide] registered a melting point of 134 to 135 °C. The IC50 in [1] was over 5000 nM. Moreover, the IC50 in [2] was over 10000 nM. Moreover, the IC50 at Human HDAC8 is over 5000 nM. Moreover, on Human HDAC3/NcoR2, the IC50 was over 5000 nM. For the same compound, the 50% inhibitory concentration (IC50) at Human HDAC1 is over 5000 nM. For the same compound, at Human HDAC2, the half-maximal inhibitory concentration (IC50) is over 5000 nM. The half-maximal inhibitory concentration (IC50) at Human HDAC6 is over 5000 nM.
In the case of `COc1ccc(-c2cc(-c3ccccc3)[nH]c2C(=O)NCc2ccc(C(=O)Nc3ccccn3)cc2)cc1` [Example 25, 3-(4-methoxyphenyl)-5-phenyl-N-{4-[(pyridin-2-ylamino)carbonyl]benzyl}-1H-pyrrole-2-carboxamide], the melting point was 196 °C (dec.). Also, in [1], the IC50 was over 5000 nM. Also, the IC50 on Human HDAC8 was over 5000 nM. For the same compound, the 50% inhibitory concentration (IC50) at Human HDAC3/NcoR2 was over 5000 nM. In addition, the IC50 at Human HDAC1 is over 5000 nM. Moreover, on Human HDAC2, the IC50 is over 5000 nM. Besides, the IC50 on Human HDAC6 is over 5000 nM.
`COc1ccc(-c2cc(-c3ccccc3)[nH]c2C(=O)NCc2ccc(C(=O)Nc3ncccn3)cc2)cc1` [Example 26, 3-(4-methoxyphenyl)-5-phenyl-N-{4-[(pyrimidin-2-ylamino)carbonyl]benzyl}-1H-pyrrole-2-carboxamide] returned a melting point of 190 to 191 °C. For the same compound, the IC50 in data set [1] is over 5000 nM. Besides, the IC50 at Human HDAC8 is over 5000 nM. Besides, the IC50 at Human HDAC3/NcoR2 is over 5000 nM. Also, the IC50 at Human HDAC1 is over 5000 nM. In addition, the IC50 on Human HDAC2 is over 5000 nM. Also, on Human HDAC6, the IC50 is over 5000 nM.
Regarding `CCc1c2c(nc3ccc(OC(=O)N4CCC(N5CCCCC5)CC4)cc13)-c1cc3c(c(=O)n1C2)COC(=O)[C@]3(O)CC` [Irinotecan, reference compound], half-maximal inhibition in the data set on Colo205 (IC50) was put at 16600 nM.
In turn, `CC(=O)O[C@H]1C(=O)[C@@]2(C)[C@H]([C@H](OC(=O)c3ccccc3)[C@]3(O)C[C@H](OC(=O)[C@H](O)[C@@H](NC(=O)c4ccccc4)c4ccccc4)C(C)=C1C3(C)C)[C@]1(OC(C)=O)CO[C@@H]1C[C@@H]2O` [Paclitaxel, reference compound] displayed an IC50 in the data set with MCF-7-218 of 285 nM.
